Experimental findings from ChEMBL document CHEMBL4811238, “Identification of N-phenyl-2-(phenylsulfonyl)acetamides/propanamides as new SLC-0111 analogues: Synthesis and evaluation of the carbonic anhydrase inhibitory activities” (Eur J Med Chem, 2021) are described below.

pIC50, pKi: −log10 of the molar value. Activity calls are given as the source filed them. No cut-off for these calls is given here. Bounds are passed on as bounds.

The target in test [1] is Carbonic anhydrase 1 (Homo sapiens, UniProt P00915). In words: Inhibition of recombinant human CA1 pre-incubated for 15 mins measured by phenol red dye based stopped flow CO2 hydration assay.
Test [2] has as its target Carbonic anhydrase 9 (Homo sapiens, UniProt Q16790).
Description: Inhibition of recombinant human CA9 pre-incubated for 15 mins measured by phenol red dye based stopped flow CO2 hydration assay
Test [3] deals with Carbonic anhydrase 2 (Homo sapiens, UniProt P00918).
Description: Inhibition of recombinant human CA2 pre-incubated for 15 mins measured by phenol red dye based stopped flow CO2 hydration assay
Test [4] concerns the target Carbonic anhydrase 12 (Homo sapiens, UniProt O43570). The experiment in a line: Inhibition of recombinant human CA12 pre-incubated for 15 mins measured by phenol red dye based stopped flow CO2 hydration assay.
Test [5] concerns HCT-116. In words: Antiproliferative activity against human HCT-116 cells after 48 hrs under hypoxic condition by MTT assay. It is filed as functional, cell-based. Particulars: HCT-116, 48 h. Background: Formazan colour is commonly taken as a measure of viable cells.
Test [6] relates to MCF7. In words: Antiproliferative activity against human MCF7 cells after 48 hrs under hypoxic condition by MTT assay. Format: functional, cell-based. The note with it: MCF7, 48 h.
Test [7] concerns HCT-116. The experiment in a line: Induction of apoptosis in human HCT116 cells assessed as necrotic cells after 24 hrs by Annexin-V-FITC/PI-staining based flow cytometry (reference value: 1.01%). Format: functional. (Flow cytometry measures light scatter and fluorescence of single cells or particles in a stream.)
For test [8], the system named is HCT-116. The experiment in a line: Induction of apoptosis in human HCT116 cells assessed as late apoptotic cells after 24 hrs by Annexin-V-FITC/PI-staining based flow cytometry (reference value: 0.22%). It is filed as functional.
Test [9] deals with HCT-116. The experiment in a line: Induction of cell cycle arrest in human HCT116 cells assessed as cell accumulation at S phase at IC50 concentration after 24 hrs by propidium iodide staining based flow cytometry analysis. It is filed as functional.
Test [10] concerns HCT-116. The experiment in a line: Induction of apoptosis in human HCT116 cells assessed as early apoptotic cells after 24 hrs by Annexin-V-FITC/PI-staining based flow cytometry (reference value: 0.59%). Format: functional.
For test [11], the system named is HCT-116. The experiment in a line: Induction of cell cycle arrest in human HCT116 cells assessed as cell accumulation at sub-G1 phase at IC50 concentration after 24 hrs by propidium iodide staining based flow cytometry analysis. It is filed as functional.

Sequence of Carbonic anhydrase 1 (P00915 whole entry): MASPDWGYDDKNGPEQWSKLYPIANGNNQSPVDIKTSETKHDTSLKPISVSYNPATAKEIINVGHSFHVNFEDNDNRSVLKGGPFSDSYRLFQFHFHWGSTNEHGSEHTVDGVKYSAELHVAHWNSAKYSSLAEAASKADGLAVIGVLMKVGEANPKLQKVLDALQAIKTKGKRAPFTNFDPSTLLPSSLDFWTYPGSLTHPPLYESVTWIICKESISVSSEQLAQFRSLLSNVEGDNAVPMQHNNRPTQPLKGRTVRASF
Sequence of Carbonic anhydrase 12 (O43570 whole entry): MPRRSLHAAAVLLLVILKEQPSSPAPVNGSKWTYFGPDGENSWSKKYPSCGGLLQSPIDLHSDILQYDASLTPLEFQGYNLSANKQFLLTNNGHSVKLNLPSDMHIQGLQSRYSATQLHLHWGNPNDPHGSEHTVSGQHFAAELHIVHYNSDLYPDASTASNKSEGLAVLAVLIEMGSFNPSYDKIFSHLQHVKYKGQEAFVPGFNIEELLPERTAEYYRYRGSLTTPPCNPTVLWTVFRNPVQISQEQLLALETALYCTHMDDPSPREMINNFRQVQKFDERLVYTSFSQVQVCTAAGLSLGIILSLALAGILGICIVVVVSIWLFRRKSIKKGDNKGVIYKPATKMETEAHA

As usually defined, the pKi is −log10 of the Ki, conventionally taken in molar units. On to `CCOC(=O)c1ccc(NC(=O)CS(=O)(=O)c2ccccc2)cc1`, for which the pKi in test [1] was less than 4.00; in test [2], 4.76; in [3], less than 4.00.

For `CC(=O)c1ccc(NC(=O)CS(=O)(=O)c2ccc(C)cc2)cc1`, the pKi in [1], in [4], in test [2] and in test [3] was less than 4.00 throughout.

In turn, `Cc1ccc(S(=O)(=O)CC(=O)Nc2ccc(S(N)(=O)=O)cc2)cc1` had a pKi in test [2] of 7.80.

In test [2], `CC(C(=O)Nc1ccc(S(N)(=O)=O)cc1)S(=O)(=O)c1ccccc1` (centres undefined) gave a pKi of 8.19.

By pIC50 is commonly meant −log10 of the IC50, conventionally taken in molar units. A low value points to a high IC50. In the case of `Cc1ccc(S(=O)(=O)CC(=O)Nc2ccc(C(=O)O)cc2)cc1`, the pIC50 in test [5] was 5.65; in test [6], 5.47. Besides, the pKi in test [2] was 6.14.

Consider `Cc1ccc(S(=O)(=O)CC(=O)Nc2ccc([N+](=O)[O-])cc2)cc1`, for which the negative-log Ki (pKi) in test [1], in test [4], in test [2] and in test [3] was less than 4.00 in each case.

`NS(=O)(=O)c1ccc(NC(=O)CS(=O)(=O)c2ccccc2)cc1` had a pKi in test [2] of 7.64.

For the compound `CCOC(=O)c1ccc(NC(=O)CS(=O)(=O)c2ccc(C)cc2)cc1`, the pKi in test [1] is less than 4.00; in [4], less than 4.00; in [2] it was 4.53.

As for `Cc1ccc(S(=O)(=O)C(C)C(=O)Nc2ccc(S(N)(=O)=O)cc2)cc1` (centres undefined), the pKi in [2] is 7.53.

As to `NS(=O)(=O)c1ccc(NC(=O)CCS(=O)(=O)c2ccccc2)cc1`, the pKi in test [2] is 7.34.

As to `O=C(CS(=O)(=O)c1ccccc1)Nc1ccc(C(=O)O)cc1`, the pKi in test [1] was less than 4.00; in test [2] it was 6.03. The pIC50 is 4.94 in test [5] and 5.28 in [6].

In the case of `Cc1ccc(S(=O)(=O)CCC(=O)Nc2ccc(S(N)(=O)=O)cc2)cc1`, the Activity in test [7] is listed as 9.63%; in test [8], 21.45%; in test [10] it was 0.91%. The result in [9] and in test [11] was Active. In addition, the pIC50 in test [5] is 6.24; in test [6] it was 6.17. This compound also gave a pKi in [2] of 8.37.
